# Like-named read-outs stand apart in the source and are kept apart here.
# How the values were obtained:
# Assay type in all cases: cell-based
# [1] = test system: ER-transactivation in MVLNs; test: ER-transactivation in MVLN luciferase cells co-cultured with HepaRG cells in the device; conditions: MVLN co-cultured with HepaRG vs mono-culture; FIG. 18C
# HEK293 cells [2] = test system: HEK293 cells
# HEK293 cells [3] = test: Conferred cytotoxicity assay, HEK293 cells in co-culture with primary human hepatocytes in the device; conditions: primary human hepatocytes (PHH) as bioactivator vs HEK293 mono-culture; FIG. 18a,b
# [4] = test system: estrogen receptor driven luciferase reporter protein stably expressed in the MVLN cell line; test: MVLN estrogen receptor driven luciferase reporter assay, co-culture with HepG2 cells in the device
compound,measurement,setting,value
Oc1ccc(Cc2ccccc2)cc1 [4-benzylphenol],ER-transactivation in MVLNs (metabolic competence of the device),[1],shows competence
COc1cc2c(c3oc(=O)c4c(c13)CCC4=O)[C@@H]1C=CO[C@@H]1O2 [aflatoxin],conferred toxicity to HEK293 cells,HEK293 cells [2],conferred toxicity
COc1cccc2c1C(=O)c1c(O)c3c(c(O)c1C2=O)C[C@@](O)(C(=O)CO)C[C@@H]3O[C@H]1C[C@H](N)[C@H](O)[C@H](C)O1 [doxorubicin],conferred toxicity to HEK293 cells,HEK293 cells [3],conferred toxicity
C[C@]12CC[C@H]3[C@@H](CCC4=CC(=O)CC[C@@]43C)[C@@H]1CC[C@@H]2O [testosterone],MVLN reporter activity,[4],activates MVLN reporter activity
